Where two headings read alike, the source gives them in different places.
Legend:
LNCaP = assay: Cell viability (Cell-Titer GLO), LNCaP
Method: (§1) Experimental method: 20 μL of a medium containing 500 to 1000 cells to be detected (the actual number of cells was related to cell cycle and cell volume) was plated into each well of the 384-well clear-bottom microplate. […] An inhibition curve was fitted by GraphPad Prism software, and IC50 was calculated.

C4-2B = assay: Cell viability (Cell-Titer GLO), C4-2B; details: read-out: Cell Viability IC50 C4-2B
Method: as §1

22Rv1 = assay: Cell viability (Cell-Titer GLO), 22Rv1
Method: as §1

FXR = target: T1, FXR (Homo sapiens, UniProt Q96RI1); assay: Gal4-LBD luciferase selectivity test, FXR
T1 sequence (Q96RI1 262-486 limits assumed): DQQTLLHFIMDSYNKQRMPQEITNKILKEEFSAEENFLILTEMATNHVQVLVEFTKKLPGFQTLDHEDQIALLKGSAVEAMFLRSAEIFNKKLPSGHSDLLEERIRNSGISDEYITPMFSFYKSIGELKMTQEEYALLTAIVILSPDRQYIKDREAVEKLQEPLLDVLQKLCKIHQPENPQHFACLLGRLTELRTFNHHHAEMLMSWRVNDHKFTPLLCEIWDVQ
Method: (§2) On the day before transfection, cells were prepared in the 96-well plate with a cell density of 1.5×10^4 cells/well. After 24 hours of adherent growth, transient transfection was performed with the transfection reagent Lipo-fectamine 2000 through a method of dual reporter gene co-transfection. The transfection reagent and the plasmids were separately diluted with the Opti-MEM Reagent. […] After 24 hours of incubation, the luciferase dual reporter gene detection assay kit was used for detecting luminescence signals. Three duplicate wells were set for each sample, and IC50 values (half maximal inhibitory concentrations) were calculated by software.

RORα = target: T2, RORα (Homo sapiens, UniProt P35398); assay: Gal4-LBD luciferase selectivity test, RORα
T2 sequence (P35398 272-510 limits assumed): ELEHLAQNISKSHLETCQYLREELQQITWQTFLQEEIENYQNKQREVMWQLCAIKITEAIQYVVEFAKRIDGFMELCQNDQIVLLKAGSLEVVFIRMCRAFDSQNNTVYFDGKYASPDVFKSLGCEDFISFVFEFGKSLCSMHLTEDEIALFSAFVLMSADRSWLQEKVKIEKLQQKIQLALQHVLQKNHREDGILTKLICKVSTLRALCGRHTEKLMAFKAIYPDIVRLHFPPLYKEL
Method: as §2

RORβ = target: T3, RORβ (Homo sapiens, UniProt Q92753); assay: Gal4-LBD luciferase selectivity test, RORβ
T3 sequence (Q92753 222-460 limits assumed): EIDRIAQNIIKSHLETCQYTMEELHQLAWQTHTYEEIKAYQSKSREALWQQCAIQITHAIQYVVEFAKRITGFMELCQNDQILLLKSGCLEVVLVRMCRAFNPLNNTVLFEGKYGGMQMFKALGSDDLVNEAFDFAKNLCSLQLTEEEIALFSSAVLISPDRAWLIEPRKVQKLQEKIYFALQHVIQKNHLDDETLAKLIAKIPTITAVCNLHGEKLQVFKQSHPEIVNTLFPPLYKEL
Method: as §2

LXRα = target: T4, LXRα (Homo sapiens, UniProt Q13133); assay: Gal4-LBD luciferase selectivity test, LXRα
T4 sequence (Q13133 209-447 limits assumed): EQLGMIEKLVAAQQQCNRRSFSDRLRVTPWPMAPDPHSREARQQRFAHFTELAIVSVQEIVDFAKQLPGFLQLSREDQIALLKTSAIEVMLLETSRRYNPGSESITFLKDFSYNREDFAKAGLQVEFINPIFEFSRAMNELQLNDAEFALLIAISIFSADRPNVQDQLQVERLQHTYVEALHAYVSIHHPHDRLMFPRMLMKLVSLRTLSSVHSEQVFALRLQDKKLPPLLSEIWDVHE
Method: as §2

hRORγ = target: T5, hRORγ (Homo sapiens, UniProt P51449); assay: protein thermal stability shift assay (TSA); details: read-out: ΔTm (TSA detection technique), hRORγ 10 μM, compound 200 μM
T5 sequence (P51449 1-518): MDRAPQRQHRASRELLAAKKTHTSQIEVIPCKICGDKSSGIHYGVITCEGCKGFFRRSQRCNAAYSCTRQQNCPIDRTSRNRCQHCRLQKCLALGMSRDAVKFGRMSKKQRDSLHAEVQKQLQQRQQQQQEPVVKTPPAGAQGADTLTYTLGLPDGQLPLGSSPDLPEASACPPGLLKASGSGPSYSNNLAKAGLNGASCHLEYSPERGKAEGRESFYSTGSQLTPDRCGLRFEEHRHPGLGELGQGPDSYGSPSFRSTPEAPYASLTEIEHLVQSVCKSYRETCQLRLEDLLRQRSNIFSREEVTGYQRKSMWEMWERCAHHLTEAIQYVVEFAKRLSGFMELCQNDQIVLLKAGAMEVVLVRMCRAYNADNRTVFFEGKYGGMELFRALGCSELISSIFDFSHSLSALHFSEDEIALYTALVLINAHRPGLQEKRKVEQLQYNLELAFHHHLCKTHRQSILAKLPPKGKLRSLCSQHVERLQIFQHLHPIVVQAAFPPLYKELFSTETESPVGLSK

RORγ = target: T6, RORγ (Homo sapiens, UniProt P51449); assay: luciferase dual reporter gene assay, Gal4-RORγLBD in 293T cells; details: IC50 (luciferase detection technique), RORγ transcriptional activity, Table 1
T6 sequence (P51449 269-508 limits assumed): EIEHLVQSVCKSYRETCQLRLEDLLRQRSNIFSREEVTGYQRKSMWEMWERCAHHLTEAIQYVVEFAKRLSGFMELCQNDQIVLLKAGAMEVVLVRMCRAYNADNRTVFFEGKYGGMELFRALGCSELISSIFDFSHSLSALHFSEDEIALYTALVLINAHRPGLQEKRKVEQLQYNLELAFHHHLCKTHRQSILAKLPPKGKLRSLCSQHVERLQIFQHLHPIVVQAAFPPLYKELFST
Method: On the day before transfection, cells were prepared in the 96-well plate with a cell density of 1.5×10^4 cells/well. After 24 hours of adherent growth, transient transfection was performed with the transfection reagent Lipo-fectamine 2000 through a method of dual reporter gene co-transfection. The transfection reagent and the plasmids were separately diluted with the Opti-MEM Reagent. Gal4-RORγLBD (25 ng), pG5-luc genes (25 ng) and Renilla (5 ng) were added to each well, and after 24 hours of co-transfection, compounds having different concentrations were added. After 24 hours of incubation, the luciferase dual reporter gene detection assay kit was used for detecting luminescence signals. Three duplicate wells were set for each sample, and IC50 values (half maximal inhibitory concentrations) were calculated by software.

[1] = Pharmacokinetic evaluations in SD rats; type: in vivo; details: Sprague-Dawley, rat, plasma
Method: Experimental materials: the pharmacokinetic analyses were carried out by Shanghai Medicilon Corporation. Sprague-Dawley (SD) rats were provided by Shanghai Super-B&K Laboratory Animal Corp., Ltd.
The stock solution was orally administered to three SD rats at a dose of 25 mg/kg and administered to three SD rats through intravenous injection at a single dose of 5 mg/kg. Blood was collected from jugular veins before the oral administration and 0.25, 0.5, 1, 2, 4, 6, 8 and 24 hours after the oral administration. Blood was collected from jugular veins before the intravenous injection and 0.083, 0.25, 0.5, 1, 2, 4, 6, 8 and 24 hours after the intravenous injection. About 200 μL of the blood samples were collected into heparinized tubes and then immediately centrifuged at 8000 r/min for 6 minutes to obtain blood plasma. The obtained blood plasma was storaged at −80° C. until analysis.

22Rv1 xenograft = details: for TGI: five days a week for three weeks
Method: Experimental purpose: a xenograft mouse experiment was used for verifying inhibitory effects of the compounds of the present application on tumors in vivo.
Experimental methods: three-week-old male mice (strain: NOD/MrkBomTac-Prkdc^scid) were purchased from Beijing Vital River Laboratory Animal Technology Co., Ltd and used for xenograft tumor establishment. 22Rv1 tumor cells were subcutaneously inoculated on a side of a lower abdomen of each mouse, and each mouse was injected with 3×10^6 cells. […] When the tumor volumes reached about 100 mm^3, the mice were randomly divided into groups (n=6-7 per group) and then administered through oral gavage. […] The length (L) and width (W) of the tumor mass were measured by a caliper, and the volume was expressed in mm^3 and calculated according to the following formula: V=π/6×(L×W^2). TGI was calculated according to the following formula: TGI=[1−(T−T0)/(C−C0)]×100, where T denoted a mean tumor volume on a specific day of the experiment and T0 denoted a mean tumor volume at the beginning of the treatment; similarly, C and C0 denoted a mean tumor volume on a specific day of the experiment and a mean tumor volume of a blank group at the beginning of the treatment, respectively.
Data represented mean tumor volume standard deviation (n=6-7 per group) in each treatment group.

CCS(=O)(=O)c1ccc(C(NC(C)=O)C(=O)Nc2ccc(-c3nc4ccc(C)cc4n3[C@@H](C)c3ccc(C)cc3)cc2)cc1 (single isomer, unassigned) [Example 74]
IC50 (LNCaP; Homo sapiens, read-out: Cell Viability IC50 LNCaP): 5.2 ± 0.14 µM | IC50 (C4-2B): 4.19 ± 0.34 µM | IC50 (22Rv1; Homo sapiens, 22Rv1, read-out: Cell Viability IC50 22Rv1): 10.4 ± 1.01 µM | IC50 (FXR): > 20 µM | IC50 (RORα): > 20 µM | IC50 (RORβ): > 20 µM | IC50 (LXRα): > 20 µM | ΔTm at 200 µM (hRORγ): < 5 °C | IC50 (RORγ): < 0.1 µM

CCS(=O)(=O)c1ccc(CC(=O)Nc2ccc(-c3nc4ccc(C(F)(F)F)cc4n3[C@H](C)c3ccc(F)cc3)cc2)cc1 [Example 67, (R)-2-(4-(ethylsulfonyl)phenyl)-N-(4-(1-(1-(4-fluorophenyl)ethyl)-6-(trifluoromethyl)-1H-benzo[d]imidazol-2-yl)phenyl)acetamide]
Cmax ([1]; iv (5 mg/kg)): 18400 ng/mL

CCS(=O)(=O)c1ccc(CC(=O)Nc2ccc(-c3nc4ccc(C(F)(F)F)cc4n3[C@@H](C)c3ccc(F)cc3)cc2)cc1 [Example 68, (S)-2-(4-(ethylsulfonyl)phenyl)-N-(4-(1-(1-(4-fluorophenyl)ethyl)-6-(trifluoromethyl)-1H-benzo[d]imidazol-2-yl)phenyl)acetamide]
Cmax ([1]; iv (5 mg/kg)): 14800 ng/mL | Cmax ([1]; po (25 mg/kg)): 5730 ng/mL | TGI (22Rv1 xenograft; 10 mg/kg oral): 83% | TGI (22Rv1 xenograft; 40 mg/kg oral): 109% | toxic effect (22Rv1 xenograft; 22Rv1 mouse xenograft models, all doses): without any apparent toxic effect | variations of weights of mice during administration (22Rv1 xenograft; all doses (10 and 40 mg/kg oral)): no apparent variations in weight

CCS(=O)(=O)c1ccc(CC(=O)Nc2ccc(-c3nc4cc(C)c(C)cc4n3Cc3ccccc3)cc2)cc1 [Example 85, N-(4-(1-benzyl-5,6-dimethyl-1H-benzo[d]imidazol-2-yl)phenyl)-2-(4-(ethylsulfonyl)phenyl)acetamide]
ΔTm at 200 µM (hRORγ): < 5 °C | IC50 (RORγ): 0.1 to 1 µM

CCS(=O)(=O)c1ccc(CC(=O)Nc2ccc(-c3nc4cc(Cl)c(Cl)cc4n3Cc3ccccc3)cc2)cc1 [Example 86, N-(4-(1-benzyl-5,6-dichloro-1H-benzo[d]imidazol-2-yl)phenyl)-2-(4-(ethylsulfonyl)phenyl)acetamide]
ΔTm at 200 µM (hRORγ): < 5 °C | IC50 (RORγ): 0.1 to 1 µM

CCS(=O)(=O)c1ccc(CC(=O)Nc2ccc(-c3nc4ccc(C)cc4[nH]3)cc2)cc1 [Example 87, 2-(4-(ethylsulfonyl)phenyl)-N-(4-(6-methyl-1H-benzo[d]imidazol-2-yl)phenyl)acetamide]
ΔTm at 200 µM (hRORγ): > 10 °C | IC50 (RORγ): 1 to 10 µM

OC(c1ccc(-c2ccc(CN3CCN(Cc4ccncc4)CC3)cc2)c(F)c1)(C(F)(F)F)C(F)(F)F [SR2211, reference compound]
IC50 (LNCaP; read-out: Cell Viability IC50 LNCaP, 72-96 h): 6.14 ± 0.04 µM | IC50 (C4-2B; C4-2B, 72-96 h): 5.38 ± 0.27 µM | IC50 (22Rv1; read-out: Cell Viability IC50 22Rv1, 22Rv1, 72-96 h): 13.3 ± 1.22 µM

— patent US20230219925A1, “BENZO FIVE-MEMBERED NITROGEN HETEROCYCLIC COMPOUND AND APPLICATION THEREOF” (GUANGZHOU INSTITUTES OF BIOMEDICINE AND HEALTH CHINESE …, priority 2020, published 2023)
